PubChem BioAssay AID292 (DTP/NCI, 2004)
“And” between values parts separate entries of the source, which are not always exact repeats. Equal entries are not always repeated. Inconclusive results and toxic doses are left out. Rule for the calls: active = survival T/C of 150% or more; inactive = T/C below 125% in these data.

Test system: B6C3F1 mice, ip Sarcoma M5076, median survival T/C
Assay: NCI In Vivo Anticancer Drug Screen. Data for tumor model Sarcoma M5076 (intraperitoneal) in B6C3F1 mice
Conditions: endpoint: median survival time, schedule: Q04DX004 (ip), higher = longer survival
Outline: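 Mice carrying the transplanted tumour received compound treatment. Survival was recorded, and each value is the treated-group measurement divided by that of the vehicle-dosed control group.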

[1] = dose: 12.5 mg/kg/injection, vehicle: Klucel (hydroxypropylcellulose) (HPC)
[2] = dose: 25.0 mg/kg/injection, vehicle: Klucel (hydroxypropylcellulose) (HPC)
[3] = dose: 50.0 mg/kg/injection, vehicle: Klucel (hydroxypropylcellulose) (HPC)
[4] = dose: 50.0 mg/kg/injection, vehicle: saline with Tween-80
[5] = dose: 100.0 mg/kg/injection, vehicle: saline with Tween-80
[6] = dose: 200.0 mg/kg/injection, vehicle: saline with Tween-80
[7] = dose: 400.0 mg/kg/injection, vehicle: saline with Tween-80
[8] = dose: 100.0 mg/kg/injection, vehicle: Klucel (hydroxypropylcellulose) (HPC)
[9] = dose: 200.0 mg/kg/injection, vehicle: Klucel (hydroxypropylcellulose) (HPC)
[10] = dose: 25.0 mg/kg/injection, vehicle: saline with Tween-80

Measured: T/C

CC[C@@H](C)[C@@H]1NC(=O)C(NC(=O)C(CC(C)C)N(C)C(=O)C2CCCN2C(=O)C(C)O)C(C)OC(=O)C(Cc2ccc(OC)cc2)N(C)C(=O)C2CCCN2C(=O)C(CC(C)C)NC(=O)C(C)C(=O)C(C(C)C)OC(=O)C[C@H]1O (stereo partly specified)
inactive: dose: 0.13 mg/kg/injection, vehicle: distilled water + alcohol 120 % of control | dose: 45.0 micrograms/kg/injection, vehicle: distilled water + alcohol 117 % of control | dose: 90.0 micrograms/kg/injection, vehicle: distilled water + alcohol 115 % of control
active: dose: 0.36 mg/kg/injection, vehicle: distilled water + alcohol 171 % of control | dose: 0.6 mg/kg/injection, vehicle: distilled water + alcohol 209 % of control

CC(=O)OC1OC(=O)C(C)(C(C)=O)C1C (stereo unspecified)
inactive: dose: 2.5 mg/kg/injection, vehicle: distilled water + alcohol 100 % of control | dose: 5.0 mg/kg/injection, vehicle: distilled water + alcohol 105 % of control | dose: 10.0 mg/kg/injection, vehicle: distilled water + alcohol 104 % of control | dose: 20.0 mg/kg/injection, vehicle: distilled water + alcohol 104 % of control | dose: 40.0 mg/kg/injection, vehicle: distilled water + alcohol 95 % of control

Cc1ccc(/C=C/C(=O)/C=C/c2ccc(C)o2)o1
inactive: dose: 50.0 mg/kg/injection, vehicle: other 101 % of control | dose: 100.0 mg/kg/injection, vehicle: other 109 % of control | dose: 200.0 mg/kg/injection, vehicle: other 108 % of control | dose: 400.0 mg/kg/injection, vehicle: other 101 % of control | dose: 800.0 mg/kg/injection, vehicle: other 95 % of control

C/C(=N\NC(=S)N1CCN(c2ccccn2)CC1)c1ccccn1
inactive: [1] 98 % of control | [2] 103 % of control | [3] 93 % of control

Cc1cc2c(=O)cc(-c3ccccc3)oc2c(C(=O)O)c1C
inactive: dose: 31.25 mg/kg/injection, vehicle: saline with Tween-80 98 % of control | dose: 62.5 mg/kg/injection, vehicle: saline with Tween-80 93 % of control | dose: 125.0 mg/kg/injection, vehicle: saline with Tween-80 113 % of control

Clc1ccccc1C(Nc1cnccn1)Nc1cnccn1
inactive: [4] 105 % of control and 112 % of control | [5] 105 % of control | [6] 103 % of control and 109 % of control | [7] 110 % of control and 114 % of control | dose: 800.0 mg/kg/injection, vehicle: saline with Tween-80 100 % of control

CC(C)(C[NH-])C[NH-].[Cl][Pt+2][Cl]
90 % of control and 241 % of control: dose: 4.0 mg/kg/injection, vehicle: water
inactive: dose: 0.25 mg/kg/injection, vehicle: water 116 % of control
active: dose: 1.0 mg/kg/injection, vehicle: water 157 % of control and 174 % of control | dose: 2.0 mg/kg/injection, vehicle: water 181 % of control and 198 % of control

CN1C=C/C(=C/[N+](=O)[O-])N(C)C1=O
inactive: [2] 103 % of control | [3] 103 % of control | [8] 99 % of control | [9] 103 % of control

CSc1c(N(C)C)c(=O)c1=S
inactive: dose: 12.5 mg/kg/injection, vehicle: saline with Tween-80 102 % of control | [10] 103 % of control | [4] 98 % of control | [5] 93 % of control

N/C(=N/N=C/c1cc(Br)cc(Br)c1O)NO
inactive: dose: 25.0 mg/kg/injection, vehicle: suspension in saline 102 % of control | dose: 50.0 mg/kg/injection, vehicle: suspension in saline 98 % of control | dose: 100.0 mg/kg/injection, vehicle: suspension in saline 110 % of control

C/C=C/C(C)C1OC1(C)C(O)C1COC(=O)C(O)C(OC)C(C)C(=O)C(C)C(O)/C(C)=C/C(C)C(=O)CC(O)C(C)C1=O (stereo unspecified)
inactive: dose: 2.5 micrograms/kg/injection, vehicle: saline 97 % of control | dose: 5.0 micrograms/kg/injection, vehicle: saline 91 % of control | dose: 10.0 micrograms/kg/injection, vehicle: saline 102 % of control | dose: 20.0 micrograms/kg/injection, vehicle: saline 96 % of control

COc1ccc([N+](=O)[O-])cc1NC(=O)C1C(=O)C(=O)N(c2cc([N+](=O)[O-])ccc2OC)C1=O (stereo unspecified)
inactive: [3] 100 % of control | [8] 107 % of control | [9] 100 % of control

CCn1c(-c2ccc(OC(C)=O)cc2)c(C)c2cc(OC(C)=O)ccc21
inactive: [2] 102 % of control | [3] 107 % of control | [8] 87 % of control | [9] 90 % of control

CC(=O)/C(=C\c1ccc(/C=C(\C(C)=O)C(=O)CCN(C)C)cc1)C(=O)CCN(C)C
inactive: [7] 92 % of control

Cc1ccc2c(c1)n([O-])c1cc(Cl)ccc1[n+]2=O
inactive: [10] 104 % of control | [4] 113 % of control | [5] 109 % of control | dose: 144.0 mg/kg/injection, vehicle: saline with Tween-80 120 % of control

COC(=O)Nc1ccc(Cc2ccc(NC(=O)OC)cc2)cc1
inactive: [4] 95 % of control | [5] 93 % of control and 94 % of control | [6] 103 % of control and 119 % of control
active: [7] 153 % of control | dose: 600.0 mg/kg/injection, vehicle: saline with Tween-80 160 % of control

N#CC1C(=O)NC(=O)C(C#N)C1c1ccc(Cl)c(Cl)c1 (stereo unspecified)
inactive: [3] 102 % of control | [8] 94 % of control | [9] 99 % of control | dose: 400.0 mg/kg/injection, vehicle: Klucel (hydroxypropylcellulose) (HPC) 102 % of control

O=C(CCl)N1CCN(C/C=C/c2ccccc2)CC1
inactive: dose: 37.5 mg/kg/injection, vehicle: saline 106 % of control | dose: 75.0 mg/kg/injection, vehicle: saline 96 % of control | dose: 150.0 mg/kg/injection, vehicle: saline 96 % of control

COCCCn1c(C(Cl)(Cl)Cl)nn2c(=O)c3ccccc3nc2c1=O
inactive: [4] 103 % of control | [5] 99 % of control | [6] 94 % of control | [7] 90 % of control

C=CCNC(=O)c1ccccc1SC(C)=O
inactive: [4] 103 % of control | [5] 96 % of control | [6] 90 % of control | [7] 103 % of control

OC1OC2COC(c3ccccc3)OC2C(O)C1O (stereo unspecified)
inactive: dose: 18.75 mg/kg/injection, vehicle: water 109 % of control | dose: 37.5 mg/kg/injection, vehicle: water 89 % of control | dose: 75.0 mg/kg/injection, vehicle: water 96 % of control | dose: 150.0 mg/kg/injection, vehicle: water 101 % of control | dose: 300.0 mg/kg/injection, vehicle: water 98 % of control | dose: 600.0 mg/kg/injection, vehicle: water 94 % of control

N#CC1C(=O)NC(=O)C(C#N)C1C1C(=O)NC2CCCCC21 (stereo unspecified)
inactive: dose: 43.75 mg/kg/injection, vehicle: saline with Tween-80 93 % of control | dose: 87.5 mg/kg/injection, vehicle: saline with Tween-80 100 % of control | dose: 175.0 mg/kg/injection, vehicle: saline with Tween-80 95 % of control | dose: 350.0 mg/kg/injection, vehicle: saline with Tween-80 95 % of control

CC1=CCCC2C1(C)CCC(C)C2(C)Cc1cc(O)ccc1O (stereo unspecified)
inactive: dose: 6.25 mg/kg/injection, vehicle: Klucel (hydroxypropylcellulose) (HPC) 103 % of control | [1] 99 % of control | [2] 101 % of control | [3] 99 % of control | [8] 102 % of control

Nc1ccc2ccc(NS(=O)(=O)N3CCCCC3)cc2c1
inactive: [4] 100 % of control | [5] 107 % of control | [6] 112 % of control | [7] 120 % of control
